According to patent US20060009415A1, “Corneal epithelial migration promoter” (priority 2000, published 2006):

System: corneal epithelial layer of rabbit cornea blocks
Test: Corneal epithelial migration in rabbit cornea tissue culture (method of Nishida et al.)
Assay type: cell-based, male Japanese white rabbits
Settings: for Corneal Epithelial Migration Rate (%): 24 h, 37.5° C., 5% CO2, control set at 100%; for corneal epithelial migration promoting effect (in words): summary of Table 1, rabbit cornea tissue culture
Description: Using cornea specimen s collected from male Japanese white rabbits, the corneal epithelial migration length was used as an index in studying the cornea tissue culturing system according to the method of Nishida, et al. (J. Cell Biol., 97, 1653-1657 (1983)). Cornea blocks (6 specimens for each group) cut from rabbit cornea pieces were cultured in a culture solution (TCM-199) containing an invention compound at 37.5° C. and 5% CO2 for 24 h. After culturing, the cornea blocks were fixed in an ethanol/glacial acetic acid (95:5 by volume) mixture solution, followed by embedding with paraffin to form slices. After removal of the paraffin, the slices were subjected to hematoxylin-eosin staining, and the length of migration of the corneal epithelial layer was observed using a microscope. As a control, culturing was also performed using a culture solution not containing an invention compound.

[1] = compound 10 μM in culture solution (TCM-199)
[2] = compound 100 μM in culture solution (TCM-199)

| SMILES | Corneal Epithelial Migration Rate (%) [1] | corneal epithelial migration promoting effect (in words) | Corneal Epithelial Migration Rate (%) [2] |
| --- | --- | --- | --- |
| Nc1ncnc2c1ncn2[C@@H]1O[C@H](COP(=O)([O-])OP(=O)([O-])O)[C@@H](O)[C@H]1O.[Na+].[Na+] [ADP-Na, adenosine 5′-diphosphate disodium] | 116.1% | significant corneal epithelial migration promoting effects |  |
| Nc1ncnc2c1ncn2[C@@H]1O[C@H](COP(=O)([O-])OP(=O)([O-])OP(=O)([O-])O)[C@@H](O)[C@H]1O.[Na+].[Na+].[Na+] [ATP-Na, adenosine 5′-triphosphate trisodium] | 119.3% | significant corneal epithelial migration promoting effects |  |
| O=c1ccn([C@@H]2O[C@H](COP(=O)([O-])OP(=O)([O-])OP(=O)([O-])OP(=O)([O-])OC[C@H]3O[C@@H](n4ccc(=O)[nH]c4=O)[C@H](O)[C@@H]3O)[C@@H](O)[C@H]2O)c(=O)[nH]1.[Na+].[Na+].[Na+].[Na+] [DUTP-Na, P^1, P^4-di(uridine-5′)tetraphosphate tetrasodium] |  | significant corneal epithelial migration promoting effects | 118.9% |
| O=c1ccn([C@@H]2O[C@H](COP(=O)([O-])OP(=O)([O-])O)[C@@H](O)[C@H]2O)c(=O)[nH]1.[Na+].[Na+] [UDP-Na, uridine 5′-diphosphate di-sodium] |  | significant corneal epithelial migration promoting effects | 115.3% |
| O=c1ccn([C@@H]2O[C@H](COP(=O)([O-])OP(=O)([O-])OP(=O)([O-])O)[C@@H](O)[C@H]2O)c(=O)[nH]1.[Na+].[Na+].[Na+] [UTP-Na, uridine 5′-triphosphate trisodium] |  | significant corneal epithelial migration promoting effects | 123.1% |
